Measured values as given in US9440969B2, “Compounds and methods for kinase modulation, and indications therefor” (PLEXXIKON INC., priority 2009, dated 2016).

Experiments:
[1] = target: c-Raf-1 (Homo sapiens, UniProt P04049); assay: c-Raf-1 kinase activity assay (AlphaScreen, biotin-MEK1 substrate); conditions: 100 μM ATP, 100 nM biotin-MEK1, 45 minutes at room temperature; read-out: Biochemical activity (IC50 μM) c-Raf-1
Method: (§1) Assays for biochemical and cell based activity are known in the art, for example, as described in PCT publication WO 2007/002433, the disclosure of which is hereby incorporated by reference as it relates to such assays. For example, the biochemical activity IC50 values are determined with respect to inhibition of B-Raf kinase activity, c-Raf-1 kinase activity, or B-Raf V600E kinase activity, where inhibition of phosphorylation of a peptide substrate is measured as a function of compound concentration. Compounds to be tested are diluted in dimethyl sulfoxide to a concentration of 0.1 mM. These are serially diluted 15 μL into 30 μL of dimethyl sulfoxide seven times in 96 well plates for a total of 8 dilution points, and for each dilution point 1 μL is added to a well of an assay plate. Plates are prepared such that each well in a 384 well plate contains 1 μL of compound in 10 μL, volume with 0.1 ng Raf enzyme (i.e. any of B-Raf, c-Raf-1 or B-Raf V600E, Upstate Biotechnology or prepared by methods known to one of skill in the art), 50 mM HEPES, pH 7.0, 50 mM NaCl, 2 mM MgCl2, 1 mM MnCl2, 0.01% Tween-20, 1 mM DTT, and 100 nM biotin-MEK1 as substrate. The reaction is started with addition of 10 μL of 200 μM ATP (i.e. final 100 μM ATP). After incubation of the kinase reaction for 45 minutes at room temperature, 5 μL/well of Stop Solution is added (25 mM Hepes pH 7.5, 100 mM EDTA, 0.01% BSA with donor beads (Streptavidin coated beads, Perkin Elmer), acceptor beads (Protein A coated, Perkin Elmer), and anti phosphor MEK1/2 antibody (CellSignal), each at final concentration 10 μg/mL). The plates are incubated for 3 hours at room temperature and read on Envision reader (Perkin Elmer). Phosphorylation of Mek1 results in binding of the anti-phosphor-MEK1/2 antibody and association of the donor and acceptor beads such that signal correlates with kinase activity. The signal vs. compound concentration is used to determine the IC50.

[2] = target: B-Raf V600E (Homo sapiens, UniProt P15056, V600E); assay: B-Raf V600E kinase activity assay (AlphaScreen, biotin-MEK1 substrate); conditions: 100 μM ATP, 100 nM biotin-MEK1, 45 minutes at room temperature, read-out: Biochemical activity (IC50 μM) V600E
Method: as §1

[3] = target: B-Raf (Homo sapiens, UniProt P15056); assay: B-Raf kinase activity assay (AlphaScreen, biotin-MEK1 substrate); conditions: 100 μM ATP, 100 nM biotin-MEK1, 45 minutes at room temperature; read-out: Biochemical activity (IC50 μM) B-Raf
Method: as §1

[4] = Relative solubility by turbidity in aqueous buffers (pH 1.5, 4.5, 6.8, 7.4); assay type: physicochemical; conditions: for turbidity threshold (L, M, H) 1.4: pH 1.5 buffer (SGF); for turbidity threshold (L, M, H) 4.5: pH 4.5 buffer (SIF); for turbidity threshold (L, M, H) 6.8: pH 6.8 buffer (SIF); for turbidity threshold (L, M, H) 7.4: pH 7.4 buffer (HEPES)
Method: As an indication of relative solubility, the turbidity of compounds in aqueous solutions is assessed. To assess possible compound properties in different physiological compartments, such as stomach, intestine, and blood, a series of aqueous buffers with varying pH is used. Thus each compound is diluted into four different physiologically relevant buffers and solution turbidity is measured by spectrophotometry.
Compounds are dissolved at a concentration of 25 mM in dimethyl sulfoxide, then serially diluted 1:1 into a 96 well plate, diluting 10 times in pure dimethyl sulfoxide, with the final well of each row a dimethyl sulfoxide blank. In an assay plate, 99 μL of appropriate buffer is added to each well, and 1 μL of each sample dilution is added to the buffer, achieving a range of final total concentrations in aqueous solutions having different pH. The buffers used are Simulated Gastric Fluid (SGF-pH 1.5) 0.5M NaCl, pH 1.5; Simulated Intestinal fluid (SIF-pH 4.5 and pH 6.8) 0.05M NaH2PO4, pH 4.5 and 6.8; and Hepes Buffer (HEPES-pH 7.4) 10 mM HEPES, 150 mM NaCl, pH 7.4. Control compounds pyrene, estriol and propranolol HCl are also assessed. Plates are spun and then mixed for 1 minute, and the absorbance is read using a Tecan Safire II to read wavelengths in the visible range (490, 535, and 650 nm) at four locations per well, reflecting the degree of turbidity present. The average optical density for each wavelength in each well is graphed vs. compound concentration, and the concentration at which the curve crosses a threshold O.D. of 0.01 for each wavelength is reported as the endpoint turbidity assay result. The average of the three wavelengths is used to compare turbidity of compounds. Compounds are considered to have low solubility if the threshold concentration is <31.3 μM, moderate solubility if the threshold concentration is 31.3 μM to 250 μM, and high solubility if the threshold concentration is >250 μM.
The following table indicates the relative solubility (L=low, M=moderate, H=high) based on turbidity threshold concentration at each pH for exemplary compounds according to the invention: […]

Sequence of B-Raf (P15056 whole entry): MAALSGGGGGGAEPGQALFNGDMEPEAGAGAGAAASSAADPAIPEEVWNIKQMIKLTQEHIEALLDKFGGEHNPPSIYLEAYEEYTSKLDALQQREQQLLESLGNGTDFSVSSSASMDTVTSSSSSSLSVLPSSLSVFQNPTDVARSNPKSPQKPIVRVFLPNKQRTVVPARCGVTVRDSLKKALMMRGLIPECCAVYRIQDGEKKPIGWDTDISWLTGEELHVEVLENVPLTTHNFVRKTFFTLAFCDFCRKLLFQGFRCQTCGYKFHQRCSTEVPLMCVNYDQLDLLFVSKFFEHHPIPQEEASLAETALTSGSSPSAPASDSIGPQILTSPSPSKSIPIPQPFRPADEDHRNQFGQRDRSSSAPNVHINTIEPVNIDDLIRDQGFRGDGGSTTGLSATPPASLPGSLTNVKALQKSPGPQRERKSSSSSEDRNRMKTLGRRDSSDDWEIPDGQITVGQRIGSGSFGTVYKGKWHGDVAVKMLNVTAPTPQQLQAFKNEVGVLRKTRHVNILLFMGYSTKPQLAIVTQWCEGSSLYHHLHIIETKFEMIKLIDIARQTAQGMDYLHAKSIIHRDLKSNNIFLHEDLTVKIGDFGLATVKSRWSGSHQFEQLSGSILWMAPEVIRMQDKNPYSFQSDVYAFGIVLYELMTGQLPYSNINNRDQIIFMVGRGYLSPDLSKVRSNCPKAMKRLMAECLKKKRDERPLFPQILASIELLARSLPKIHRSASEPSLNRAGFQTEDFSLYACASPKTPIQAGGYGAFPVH
Sequence of B-Raf V600E (P15056 whole entry V600E): as the sequence (P15056 whole entry) above, with V600E counted along it
Sequence of c-Raf-1 (P04049 whole entry Y340D/Y341D, form open): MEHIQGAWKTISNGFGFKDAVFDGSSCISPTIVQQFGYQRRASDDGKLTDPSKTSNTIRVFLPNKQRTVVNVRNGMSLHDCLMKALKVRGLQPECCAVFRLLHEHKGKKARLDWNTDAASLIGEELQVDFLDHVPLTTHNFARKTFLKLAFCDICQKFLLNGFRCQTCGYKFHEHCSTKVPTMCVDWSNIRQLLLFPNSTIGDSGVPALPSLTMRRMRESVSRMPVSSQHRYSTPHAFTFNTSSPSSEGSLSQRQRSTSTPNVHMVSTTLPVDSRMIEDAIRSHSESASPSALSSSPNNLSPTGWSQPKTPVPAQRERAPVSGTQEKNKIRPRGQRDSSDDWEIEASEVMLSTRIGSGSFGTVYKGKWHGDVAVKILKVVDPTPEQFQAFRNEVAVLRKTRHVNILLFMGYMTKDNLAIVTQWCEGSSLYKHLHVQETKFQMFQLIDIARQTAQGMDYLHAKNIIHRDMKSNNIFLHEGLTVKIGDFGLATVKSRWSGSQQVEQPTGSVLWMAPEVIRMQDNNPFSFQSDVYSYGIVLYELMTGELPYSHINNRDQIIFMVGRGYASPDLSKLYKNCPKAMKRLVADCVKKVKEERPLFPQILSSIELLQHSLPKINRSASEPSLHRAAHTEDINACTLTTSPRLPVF

| Structure (SMILES) | IC50 [1] | IC50 [2] | IC50 [3] | turbidity threshold (L, M, H) 1.4 [4] | turbidity threshold (L, M, H) 4.5 [4] | turbidity threshold (L, M, H) 6.8 [4] | turbidity threshold (L, M, H) 7.4 [4] |
| --- | --- | --- | --- | --- | --- | --- | --- |
| CCCS(=O)(=O)Nc1ccc(F)c(C(=O)c2c[nH]c3ncc(-c4cccc5nccn45)cc23)c1F [P-0018, Propane-1-sulfonic acid [2,4-difluoro-3-(5-imidazo[1,2-a]pyridin-5-yl-1H-pyrrolo[2,3-b]pyridine-3-carbonyl)-phenyl]-amide] | < 0.1 µM | < 0.1 µM | < 0.1 µM | – | – | – | – |
| CCCS(=O)(=O)Nc1ccc(F)c(C(=O)c2c[nH]c3ncc(-c4ccc5cnn(C)c5c4)cc23)c1F [P-0027, Propane-1-sulfonic acid {2,4-difluoro-3-[5-(1-methyl-1H-indazol-6-yl)-1H-pyrrolo[2,3-b]pyridine-3-carbonyl]-phenyl}-amide] | – | – | – | L (low solubility if the threshold concentration is <31.3 μM) | L (low solubility if the threshold concentration is <31.3 μM) | L (low solubility if the threshold concentration is <31.3 μM) | L (low solubility if the threshold concentration is <31.3 μM) |
| CCCS(=O)(=O)Nc1ccc(F)c(C(=O)c2c[nH]c3ncc(-c4ccc5c(cnn5C)c4)cc23)c1F [P-0028, Propane-1-sulfonic acid {2,4-difluoro-3-[5-(1-methyl-1H-indazol-5-yl)-1H-pyrrolo[2,3-b]pyridine-3-carbonyl]-phenyl}-amide] | – | – | – | L (low solubility if the threshold concentration is <31.3 μM) | L (low solubility if the threshold concentration is <31.3 μM) | L (low solubility if the threshold concentration is <31.3 μM) | L (low solubility if the threshold concentration is <31.3 μM) |
| CC(C)(C)OC(=O)N1CCC(n2cc(-c3cnc4[nH]cc(C(=O)c5c(F)ccc(NS(=O)(=O)c6ccc(C(F)(F)F)cc6)c5F)c4c3)cn2)CC1 [P-1003, 4-(4-{3-[2,6-Difluoro-3-(4-trifluoromethyl-benzenesulfonylamino)-benzoyl]-1H-pyrrolo[2,3-b]pyridin-5-yl}-pyrazol-1-yl)-piperidine-1-carboxylic acid tert-butyl ester] | – | < 10 µM | < 0.1 µM | – | – | – | – |
| CCCS(=O)(=O)Nc1ccc(F)c(C(=O)c2c[nH]c3ncc(-c4cnc(NC5CC5)nc4)cc23)c1F [P-1504, Propane-1-sulfonic acid {3-[5-(2-cyclopropylamino-pyrimidin-5-yl)-1H-pyrrolo[2,3-b]pyridine-3-carbonyl]-2,4-difluoro-phenyl}-amide] | – | – | – | L (low solubility if the threshold concentration is <31.3 μM) | M (moderate solubility if the threshold concentration is 31.3 μM to 250 μM) | M (moderate solubility if the threshold concentration is 31.3 μM to 250 μM) | M (moderate solubility if the threshold concentration is 31.3 μM to 250 μM) |
| CCCS(=O)(=O)Nc1ccc(F)c(C(=O)c2c[nH]c3ncc(-c4cnc(NCCOC)nc4)cc23)c1F [P-1505, Propane-1-sulfonic acid (2,4-difluoro-3-{5-[2-(2-methoxy-ethylamino)-pyrimidin-5-yl]-1H-pyrrolo[2,3-b]pyridine-3-carbonyl}-phenyl)-amide] | – | – | – | L (low solubility if the threshold concentration is <31.3 μM) | L (low solubility if the threshold concentration is <31.3 μM) | L (low solubility if the threshold concentration is <31.3 μM) | M (moderate solubility if the threshold concentration is 31.3 μM to 250 μM) |
| COCCNc1ncc(-c2cnc3[nH]cc(C(=O)c4c(F)ccc(NS(=O)(=O)c5cc(F)ccc5F)c4F)c3c2)cn1 [P-1507, N-(2,4-Difluoro-3-{5-[2-(2-methoxy-ethylamino)-pyrimidin-5-yl]-1H-pyrrolo[2,3-b]pyridine-3-carbonyl}-phenyl)-2,5-difluoro-benzenesulfonamide] | – | – | – | L (low solubility if the threshold concentration is <31.3 μM) | L (low solubility if the threshold concentration is <31.3 μM) | L (low solubility if the threshold concentration is <31.3 μM) | L (low solubility if the threshold concentration is <31.3 μM) |
| CCCS(=O)(=O)Nc1ccc(F)c(C(=O)c2c[nH]c3ncc(-c4cnc(N5CCC5)nc4)cc23)c1F [P-1512, Propane-1-sulfonic acid {3-[5-(2-azetidin-1-yl-pyrimidin-5-yl)-1H-pyrrolo[2,3-b]pyridine-3-carbonyl]-2,4-difluoro-phenyl}-amide] | – | – | – | L (low solubility if the threshold concentration is <31.3 μM) | L (low solubility if the threshold concentration is <31.3 μM) | L (low solubility if the threshold concentration is <31.3 μM) | L (low solubility if the threshold concentration is <31.3 μM) |
| CCCS(=O)(=O)Nc1ccc(F)c(C(=O)c2c[nH]c3ncc(-c4cnc(NC)nc4)cc23)c1F [P-1514, Propane-1-sulfonic acid {2,4-difluoro-3-[5-(2-methylamino-pyrimidin-5-yl)-1H-pyrrolo[2,3-b]pyridine-3-carbonyl]-phenyl}-amide] | – | – | – | L (low solubility if the threshold concentration is <31.3 μM) | L (low solubility if the threshold concentration is <31.3 μM) | M (moderate solubility if the threshold concentration is 31.3 μM to 250 μM) | L (low solubility if the threshold concentration is <31.3 μM) |
| CCCS(=O)(=O)Nc1ccc(F)c(C(=O)c2c[nH]c3ncc(-c4cnc(NCCN(C)C)nc4)cc23)c1F [P-1515, Propane-1-sulfonic acid (3-{5-[2-(2-dimethylamino-ethylamino)-pyrimidin-5-yl]-1H-pyrrolo[2,3-b]pyridine-3-carbonyl}-2,4-difluoro-phenyl)-amide] | – | – | – | L (low solubility if the threshold concentration is <31.3 μM) | M (moderate solubility if the threshold concentration is 31.3 μM to 250 μM) | M (moderate solubility if the threshold concentration is 31.3 μM to 250 μM) | M (moderate solubility if the threshold concentration is 31.3 μM to 250 μM) |
| CCCS(=O)(=O)Nc1ccc(F)c(C(=O)c2c[nH]c3ncc(-c4cnc(NCCCOC)nc4)cc23)c1F [P-1516, Propane-1-sulfonic acid (2,4-difluoro-3-{5-[2-(3-methoxy-propylamino)-pyrimidin-5-yl]-1H-pyrrolo[2,3-b]pyridine-3-carbonyl}-phenyl)-amide] | – | – | – | L (low solubility if the threshold concentration is <31.3 μM) | L (low solubility if the threshold concentration is <31.3 μM) | L (low solubility if the threshold concentration is <31.3 μM) | L (low solubility if the threshold concentration is <31.3 μM) |
